Laboratory results: US20110039314A1, “Composition for Catalytic Amide Production and Uses Thereof” (LOYOLA UNIVERSITY OF CHICAGO, priority 2009, published 2011)

How the values were obtained:
[1] = target: Fe-type nitrile hydratase from Comamonas testosteroni Ni1 (CtNHase) (Comamonas testosteroni, UniProt J9PBS0+J9PBS1); conditions: previously reported value (ref. 34); cited from earlier work
[2] = target: Co-type nitrile hydratase from Pseudonocardia thermophile JCM 3095 (PtNHase) (Pseudonocardia thermophila, UniProt Q7SID2+Q7SID3); conditions: previously reported value (ref. 21); cited from earlier work
[3] = substrate: N#Cc1ccccc1; assay: purified protein, by the assay type; conditions: other: benzonitrile hydrolysis, solution, pH 7.6, 25° C.

N#CCCCCC(=O)O [cyanovaleric acid]
Km [1]: 3200 µM

N#Cc1ccccc1 [benzonitrile]
Km [2]: 19 µM
kcat [2]: 120 s⁻¹

B1: Co-type nitrile hydratase from Pseudonocardia thermophile JCM 3095 (PtNHase) (Pseudonocardia thermophila) (protein)
chain 1: MTENILRKSDEEIQKEITARVKALESMLIEQGILTTSMIDRMAEIYENEVGPHLGAKVVVKAWTDPEFKKRLLADGTEACKELGIGGLQGEDMMWVENTDEVHHVVVCTLCSCYPWPVLGLPPNWFKEPQYRSRVVREPRQLLKEEFGFEVPPSKEIKVWDSSSEMRFVVLPQRPAGTDGWSEEELATLVTRESMIGVEPAKAV
chain 2: MNGVYDVGGTDGLGPINRPADEPVFRAEWEKVAFAMFPATFRAGFMGLDEFRFGIEQMNPAEYLESPYYWHWIRTYIHHGVRTGKIDLEELERRTQYYRENPDAPLPEHEQKPELIEFVNQAVYGGLPASREVDRPPKFKEGDVVRFSTASPKGHARRARYVRGKTGTVVKHHGAYIYPDTAGNGLGECPEHLYTVRFTAQELWGPEGDPNSSVYYDCWEPYIELVDTKAAAA
Km [3]: 18 µM
kcat [3]: 123 s⁻¹
